Literature values in patent publication US20200281890A1, “COMPOSITIONS COMPRISING CANNABIDIOL, TETRAHYDROCANNABINOL, TERPENES, AND […] USE THEREOF IN THE TREATMENT OF INSOMNIA” (CANOPY HEALTH INNOVATIONS, priority 2017, published 2020).

Assays:
5-HT1A receptor = target: T1, 5-HT1A receptor (Homo sapiens, UniProt P08908)
T1 sequence (P08908 1-422): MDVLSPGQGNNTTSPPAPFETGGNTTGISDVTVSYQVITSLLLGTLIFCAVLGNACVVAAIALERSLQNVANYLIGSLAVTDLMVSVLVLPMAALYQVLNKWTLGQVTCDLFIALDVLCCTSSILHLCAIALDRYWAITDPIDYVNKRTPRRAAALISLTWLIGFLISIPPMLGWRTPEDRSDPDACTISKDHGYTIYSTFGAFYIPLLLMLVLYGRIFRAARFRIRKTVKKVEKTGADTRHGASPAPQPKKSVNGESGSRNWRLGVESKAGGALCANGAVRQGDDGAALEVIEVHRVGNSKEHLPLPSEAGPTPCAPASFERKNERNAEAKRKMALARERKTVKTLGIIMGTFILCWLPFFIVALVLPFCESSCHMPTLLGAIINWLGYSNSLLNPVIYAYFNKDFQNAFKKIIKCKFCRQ

[1] = system: mice, rats, gerbils and non-human primates
CB2 receptor = CB2 receptor (Homo sapiens, UniProt P34972)
CB1 receptor = CB1 receptor (Homo sapiens, UniProt P21554)
mouse = conditions: up to 80 mg/kg

Sequence of CB1 receptor (P21554 whole entry): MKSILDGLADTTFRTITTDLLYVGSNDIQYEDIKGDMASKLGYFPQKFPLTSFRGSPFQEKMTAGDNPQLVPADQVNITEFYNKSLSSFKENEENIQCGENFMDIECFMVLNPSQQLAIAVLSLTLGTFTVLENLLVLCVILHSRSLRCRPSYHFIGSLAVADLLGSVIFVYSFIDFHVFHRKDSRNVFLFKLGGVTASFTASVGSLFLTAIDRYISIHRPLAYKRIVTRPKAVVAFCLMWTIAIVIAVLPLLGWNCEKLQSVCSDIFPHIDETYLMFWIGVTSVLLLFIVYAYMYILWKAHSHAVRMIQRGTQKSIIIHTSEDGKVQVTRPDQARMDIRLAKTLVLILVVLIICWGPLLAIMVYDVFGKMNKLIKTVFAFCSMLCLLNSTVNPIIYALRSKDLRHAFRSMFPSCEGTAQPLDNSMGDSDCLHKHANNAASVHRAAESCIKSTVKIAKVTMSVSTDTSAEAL
Sequence of CB2 receptor (P34972 whole entry): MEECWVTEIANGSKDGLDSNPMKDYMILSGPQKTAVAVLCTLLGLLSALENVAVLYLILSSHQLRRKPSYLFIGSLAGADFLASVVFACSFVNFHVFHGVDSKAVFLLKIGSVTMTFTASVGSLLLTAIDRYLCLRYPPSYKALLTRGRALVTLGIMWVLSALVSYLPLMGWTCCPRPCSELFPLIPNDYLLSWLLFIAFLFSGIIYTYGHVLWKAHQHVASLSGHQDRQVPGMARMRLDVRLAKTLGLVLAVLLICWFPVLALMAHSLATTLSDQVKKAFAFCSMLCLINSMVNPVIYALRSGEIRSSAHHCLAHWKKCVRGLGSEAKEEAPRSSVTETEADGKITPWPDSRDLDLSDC

Row | Structure (SMILES) | 5-HT1A receptor affinity and function (5-HT1A receptor) | THC-like activity [1] | a2-adrenergic receptor affinity and function (a2-adrenergic receptor) | CB2 receptor binding and function (CB2 receptor) | CB1 receptor affinity and function (CB1 receptor) | effect in mouse tetrad test (locomotor suppression, catalepsy, hypothermia and analgesia) (mouse) | affinity to CB2 receptors relative to CB1 (CB2 receptor; lower affinities in comparison to THC) | function at the CB1 receptors (CB1 receptor)
1 | CCCCCc1cc(O)c(C/C=C(\C)CCC=C(C)C)c(O)c1 [CBG, cannabigerol] | moderate affinity 5-HT1A receptor antagonist | does not trigger THC-like activity | high affinity a2-adrenergic receptor agonist | antagonist | low affinity CB1 receptor antagonist | without effect |  | 
2 | CCCCCc1cc(O)c2c(c1)OC(C)(C)c1ccc(C)cc1-2 [CBN, cannabinol] |  |  |  |  |  |  | higher affinity to CB2 receptors | partial agonist
